Reference: PMC9529094, “Identification of natural cytochalasins as leads for neglected tropical diseases drug discovery” (PLoS ONE, 2022)
Read-outs that look alike come from different tables or passages of the source.

Key:
[1] = tested on: intracellular T. cruzi Tulahuen LacZ amastigotes; assay: microbe, parasite or virus in culture; assay type: cell-based, Trypanosoma cruzi; conditions: for IC50: Trypanosoma cruzi, intracellular amastigotes, Tulahuen LacZ, HFF-1 host cells, 120 h, read-out: T. cruzi IC50 (μM ± SD); for SI^1 (CC50 HFF-1/IC50 T. cruzi) / SI^3 (CC50 HepG2/IC50 T. cruzi): selectivity index
Protocol: The epimastigote forms of the T. cruzi Tulahuen strain, which expresses the E. coli β-galactosidase gene lacZ [11], were grown in liver infusion tryptone (LIT) supplemented with 10% FCS (Cultilab) and 1% pen/strep (Sigma–Aldrich) at 28°C. Metacyclogenesis from epimastigotes to trypomastigotes was induced by the incubation of the epimastigotes in Grace’s insect medium (Sigma-Aldrich, 28°C) every 5 days. After 5 days, the trypomastigote forms were used to infect the HFF-1 cells. The promastigote forms of L. infantum were maintained in Schneider’s insect medium (Sigma-Aldrich) supplemented with 10% FCS (Cultilab) and 1% pen/strep (Sigma-Aldrich) at 28°C and subcultured every 6 or 7 days.
In vitro assays against T. cruzi were performed as described previously. HFF-1 human fibroblasts were seeded at 4x10^3/well in 96-well tissue culture plates in DMEM (Cultilab) without phenol red and then incubated overnight (37°C, 5% CO2). Next, trypomastigotes were added at 4x10^4/well, and the plates were incubated (37°C, 5% CO2). After 24 h, 2-fold serial dilutions of the test compounds were added at concentrations ranging from 64 to 0.12 μM, and the plates were then incubated (37°C, 5% CO2). Each compound concentration was evaluated in duplicate. All the plates included BZ (64–0.12 μM) (Sigma-Aldrich) as a positive control and untreated wells (100% growth) as a negative control. After 120 h, chlorophenol red β-D-galactopyranoside (CPRG, Sigma-Aldrich) was added to each well. The absorbance was measured at 570 nm in an automated SpectraMax 384 microplate reader (Sunnyvale, CA, USA), and the data were analysed using GraphPad Prism version 8.0 (San Diego, CA, USA) for IC50 value calculation.
The analyses were performed using GraphPad Prism version 8.0 (GraphPad Software, San Diego, CA, USA). Both the IC50 and CC50 values were calculated by adjusting the sigmoid dose-response curves, and the selectivity index (SI) values were determined by CC50/IC50 [16]. Statistical analyses were performed using one-way ANOVA followed by Dunnett’s multiple comparison test.

in vitro = assay type: cell-based; conditions: human, 72 h, MTS
Protocol: THP-1 (human monocyte cell line) cells were cultivated in RPMI medium supplemented with 10% foetal calf serum (FCS) (Cultilab, Campinas, SP, BR) and 1% penicillin and streptomycin (pen/strep—Sigma-Aldrich) at 37°C under 5% CO2, and HFF-1 (human fibroblast) and HepG2 (hepatocytes) cells were cultivated in DMEM without phenol red (Cultilab) supplemented with 10% FBS (Sigma-Aldrich) and 1% pen/strep at 37°C under 5% CO2.
The cytotoxicity of the compounds against HFF-1 fibroblasts and HepG2 hepatocytes was evaluated using the MTS tetrazolium assay (Promega, Madison, WI, USA). HFF-1 fibroblasts were seeded at 4x10^3/well in 96-well culture plates in DMEM without phenol red and incubated overnight (37°C, 5% CO2). HepG2 hepatocytes were seeded at 7x10^3/well in 96-well culture plates in DMEM (Cultilab) with supplements (10% FCS, 1% pen/strep) and incubated overnight (37°C, 5% CO2). The compounds were added in 2-fold serial dilutions at the same concentrations described before, and the plates were incubated as described before. Each compound concentration was evaluated in duplicate. All the plates included doxorubicin (DOX) (Sigma-Aldrich) as a positive control (10–0.01 μM) and untreated wells as a negative control (100% growth). After 72 h, 15 μL of MTS (Promega) was added, and the plates were incubated for 4 h. The absorbance was measured at 490 nm in an automated SpectraMax 384 microplate reader (Sunnyvale, CA, USA), and the data were analysed using GraphPad Prism version 8.0 for CC50 value calculation. The percentage of nonviable cells was determined and compared to the negative control wells (100% growth).

[2] = tested on: L. infantum promastigotes; assay: Leishmanicidal assay using L. infantum promastigotes (resazurin); assay type: cell-based, Leishmania infantum; conditions: 20–2.5 μM, 24 h, Fig 2C
Protocol: Promastigotes of L. infantum (1x10^6 parasites/well) were distributed in 96-well plates, and the test compounds (cytochalasins A-D) were added at concentrations of 20–2.5 μM. The plates were incubated under the same conditions as previously described for 24 h. The leishmanicidal activity was determined by adding 20 μL of resazurin (Sigma-Aldrich), and the plates were incubated for 4 h. The absorbance was measured at 536 and 588 nm in an automated SpectraMax Gemini microplate reader, and the data were analysed using GraphPad Prism version 8.0 for the CC50 value calculation. The percentage of nonviable parasites was determined and compared to the negative control wells.

T. cruzi = assay: Screening of natural product collection against T. cruzi (cell infection assay); assay type: cell-based; conditions: Trypanosoma cruzi; compound concentration of 50 μM
Protocol: A screening of a natural product collection was performed by using cell assays for infection with Trypanosoma cruzi and Leishmania infantum. The collection includes 320 compounds from the metabolic classes terpenes, alkaloids, peptides and amides that were isolated by plant species or endophytic fungi. For further evaluation in this study, cytochalasins A-D (CAS numbers: CytA: 14110-64-6, CytB: 14930-96-2, CytC: 22144-76-9, CytD: 22144-77-0) were obtained from Sigma-Aldrich (St. Louis, MO, USA). The purity of these compounds was ≥97%. The stock solution of the compounds was prepared in 100% DMSO (dimethyl sulfoxide—Sigma-Aldrich).

Compound: CC(=O)OC1C=CC(C)(O)C(=O)C(C)CC=CC2C(O)C(C)=C(C)C3C(Cc4ccccc4)NC(=O)C123 (centres unmarked) [Cytochalasin C]
- IC50 [1]: 10.2 ± 1.13 µM
- SI^1 (CC50 HFF-1/IC50 T. cruzi) [1]: 7.45
- SI^3 (CC50 HepG2/IC50 T. cruzi) [1]: 2.19
- CC50 (in vitro; read-out: HFF-1 CC50 (μM ± SD)): 76.3 ± 3.12 µM
- CC50 (in vitro; read-out: HepG2 CC50 (μM ± SD)): 22.5 ± 6.47 µM
- toxicity to L. infantum promastigote parasites [2]: toxic
- inhibition at 50 µM (T. cruzi): 72.8%

Compound: C=C1[C@@H](C)[C@H]2[C@H](Cc3ccccc3)NC(=O)[C@]23[C@H](OC(C)=O)/C=C/[C@@](C)(O)C(=O)[C@@H](C)C/C=C/[C@H]3[C@@H]1O [Cytochalasin D]
- IC50 [1]: 20.2 ± 3.27 µM
- SI^1 (CC50 HFF-1/IC50 T. cruzi) [1]: 4.78
- SI^3 (CC50 HepG2/IC50 T. cruzi) [1]: 6.11
- CC50 (in vitro; read-out: HFF-1 CC50 (μM ± SD)): 96.5 ± 10 µM
- CC50 (in vitro; read-out: HepG2 CC50 (μM ± SD)): 123 ± 20 µM
- inhibition at 50 µM (T. cruzi): 69.5%

Compound: C=C1[C@@H](C)[C@H]2[C@H](Cc3ccccc3)NC(=O)[C@]23OC(=O)/C=C/C(=O)CCC[C@@H](C)C/C=C/[C@H]3[C@@H]1O [Cytochalasin A]
- IC50 [1]: 3.02 ± 2.16 µM
- SI^1 (CC50 HFF-1/IC50 T. cruzi) [1]: 8.96
- SI^3 (CC50 HepG2/IC50 T. cruzi) [1]: 6.99
- CC50 (in vitro; read-out: HFF-1 CC50 (μM ± SD)): 27.07 ± 0.17 µM
- CC50 (in vitro; read-out: HepG2 CC50 (μM ± SD)): 21.1 ± 4.51 µM
- toxicity to L. infantum promastigote parasites [2]: toxic
- inhibition at 50 µM (T. cruzi): 99.7%

Compound: C=C1[C@@H](C)[C@H]2[C@H](Cc3ccccc3)NC(=O)[C@]23OC(=O)/C=C/[C@H](O)CCC[C@@H](C)C/C=C/[C@H]3[C@@H]1O [Cytochalasin B]
- IC50 [1]: 16.9 ± 1.47 µM
- SI^1 (CC50 HFF-1/IC50 T. cruzi) [1]: 1.29
- SI^3 (CC50 HepG2/IC50 T. cruzi) [1]: 2.74
- CC50 (in vitro; read-out: HFF-1 CC50 (μM ± SD)): 21.8 ± 3.57 µM
- CC50 (in vitro; read-out: HepG2 CC50 (μM ± SD)): 46.3 ± 19.3 µM
- inhibition at 50 µM (T. cruzi): 79.4%
